Experiments:
Sphaerotheca fuliginea = test: In vivo preventive test on Sphaerotheca fuliginea (cucumber); settings: 500 ppm of active ingredient, evaluated 7 days after inoculation
Source text: One day after this treatment, the plants are inoculated with an aqueous spore suspension of Sphaerotheca fuliginea.

Alternaria solani = test: In vivo preventive test on Alternaria solani (tomato); settings: 500 ppm of active ingredient, evaluated 7 days after inoculation
Source text: One day after this treatment, the plants are inoculated with an aqueous spore suspension of Alternaria solani.

[1] = logP by HPLC on reversed-phase column (C 18), EEC Directive 79/831 Annex V.A8; format: physicochemical
Experimental: In table 1, the logP values were determined in accordance with EEC Directive 79/831 Annex V.A8 by HPLC (High Performance Liquid Chromatography) on a reversed-phase column (C 18), using the method described below: Temperature: 40° C.; […]

Pyrenophora teres = test: In vivo preventive test on Pyrenophora teres (barley); settings: 500 ppm of active ingredient, evaluated 7-9 days after inoculation
Source text: One day after this treatment, the plants are inoculated with an aqueous spore suspension of Pyrenophora teres.

aflatoxines production = test: microbe, parasite or virus in culture; format: cell-based, Aspergillus parasiticus; settings: 50 μM
Fusarium graminearum = test: microbe, parasite or virus in culture; format: cell-based; settings: 50 μM

Compound	Efficacy (Sphaerotheca fuliginea)	Efficacy (Alternaria solani)	logP [1]	Efficacy (Pyrenophora teres)	% Inhibition of Aflatoxin at 50 μM (aflatoxines production)	% Inhibition of fungal growth at 50 μM (Fusarium graminearum)
CC(Cc1ccccc1F)N(C(=S)c1c(C(F)F)nn(C)c1F)C1CC1 (stereo not drawn) [Example 21]	100%	95%	4.01	100%		
Cn1nc(C(F)F)c(C(=O)NCCc2cc(Cl)cc(Cl)c2)c1Cl [Example 105]		95%	3.42	94%	100%	95%
CC(CNC(=O)c1c(C(F)F)nn(C)c1F)c1cc(Cl)cc(Cl)c1 (stereo not drawn) [Example 111]		95%	3.55	100%	100%	96%
CC(CNC(=O)c1c(C(F)F)nn(C)c1Cl)c1cc(Cl)cc(Cl)c1 (stereo not drawn) [Example 112]		95%	3.73	100%	100%	83%
Cn1nc(C(F)F)c(C(=O)NCCc2c(Cl)cccc2Cl)c1F [Example 117]		95%	3.00	100%	100%	100%
Cn1nc(C(F)F)c(C(=O)NCCc2c(Cl)cccc2Cl)c1Cl [Example 118]		90%	3.21	94%	100%	81%
Cn1nc(C(F)F)c(C(=O)NCCc2ccccc2C(F)(F)F)c1F [Example 121]		95%	2.92	100%	100%	100%
CN(CCc1ccccc1C(F)(F)F)C(=O)c1c(C(F)F)nn(C)c1F [Example 123]		100%	3.00	95%	100%	100%
CN(CCc1ccccc1C(F)(F)F)C(=O)c1c(C(F)F)nn(C)c1Cl [Example 124]		100%	3.13	95%	100%	87%
CC(CNC(=O)c1c(C(F)F)nn(C)c1Cl)c1cccc(C(F)(F)F)c1 (stereo not drawn) [Example 125]		95%	3.35	100%	99%	78%
CC(CNC(=O)c1c(C(F)F)nn(C)c1F)c1cccc(C(F)(F)F)c1 (stereo not drawn) [Example 126]		90%	3.23	100%	100%	98%
CC(CNC(=O)c1c(C(F)F)nn(C)c1F)c1ccc(C(F)(F)F)cc1 (stereo not drawn) [Example 127]		100%	3.25	100%	100%	100%
CC(CNC(=O)c1c(C(F)F)nn(C)c1Cl)c1ccc(C(F)(F)F)cc1 (stereo not drawn) [Example 128]		100%	3.39	94%	100%	82%
Cc1cc(C)c(CCN(C)C(=O)c2c(C(F)F)nn(C)c2F)c(C)c1 [Example 135]		95%	3.48	95%	100%	96%
CN(CCc1ccc(C(C)(C)C)cc1)C(=O)c1c(C(F)F)nn(C)c1F [Example 138]		100%	3.78	95%	100%	80%
CC(Cc1cccc(Oc2ccccc2)c1)NC(=O)c1c(C(F)F)nn(C)c1F (stereo not drawn) [Example 146]		95%	3.64	100%	100%	83%
Cn1nc(C(F)F)c(C(=O)NCCc2ccc(Oc3ccccc3)cc2)c1F [Example 152]		95%	3.41	100%	100%	82%
CC(Cc1ccc(Oc2ccccc2)cc1)NC(=O)c1c(C(F)F)nn(C)c1Cl (stereo not drawn) [Example 154]		100%	3.83	100%	99%	80%
Cn1nc(C(F)F)c(C(=O)NCC(c2cccs2)C(F)(F)F)c1F (stereo not drawn) [Example 161]		95%	2.75	100%	100%	85%

Compound	Efficacy (Sphaerotheca fuliginea)	Efficacy (Alternaria solani)	logP [1]	Efficacy (Pyrenophora teres)	% Inhibition of Aflatoxin at 50 μM (aflatoxines production)	% Inhibition of fungal growth at 50 μM (Fusarium graminearum)
Cn1nc(C(F)F)c(C(=O)NCC(c2cccs2)C(F)(F)F)c1Cl (stereo not drawn) [Example 162]		100%	2.92	95%	98%	80%
Cc1ccsc1CCNC(=O)c1c(C(F)F)nn(C)c1Cl [Example 163]		90%	2.68	95%	98%	80%
Cc1ccsc1CCNC(=O)c1c(C(F)F)nn(C)c1F [Example 164]		95%	2.49	100%	100%	95%
Cn1nc(C(F)F)c(C(=O)NCCc2ccsc2Br)c1Cl [Example 165]		90%	2.82	95%	99%	81%
Cn1nc(C(F)F)c(C(=O)NCCc2csc3c2CCCC3)c1Cl [Example 169]		80%	3.52	100%	91%	75%
Cc1c(CCNC(=O)c2c(C(F)F)nn(C)c2F)sc2ccccc12 [Example 171]		100%	3.27	100%	100%	93%
Cc1c(CCNC(=O)c2c(C(F)F)nn(C)c2Cl)sc2ccccc12 [Example 172]		100%	3.46	100%	100%	85%
Cc1cccnc1CC(NC(=O)c1c(C(F)F)nn(C)c1F)C(F)(F)F (stereo not drawn) [Example 185]		95%	1.52	94%	100%	87%
Cn1nc(C(F)F)c(C(=O)NCCc2ncc(C(F)(F)F)cc2Cl)c1Cl [Example 191]		94%	2.97	100%	100%	100%
CCC(CNC(=O)c1c(C(F)F)nn(C)c1F)c1ncc(C(F)(F)F)cc1Cl (stereo not drawn) [Example 192]		100%	3.52	100%	100%	100%
Cn1nc(C(F)F)c(C(=O)NCCc2c(F)c(F)nc(F)c2F)c1F [Example 208]		95%	2.44	100%	99%	100%
Cn1nc(C(F)F)c(C(=O)N(C2CC2)C2CCCCC2c2ccc(Cl)cc2Cl)c1F (stereo not drawn) [Example 217]	99%		5.05			
Cn1nc(C(F)F)c(C(=O)NC[Si](C)(C)c2ccccc2)c1Cl [Example 227]		95%	3.31	100%	87%	71%
Cn1nc(C(F)F)c(C(=O)NC[Si](C)(C)c2ccccc2)c1F [Example 228]		100%	3.13	100%	100%	93%
Cn1nc(C(F)F)c(C(=O)NC[Si](C)(C)c2cccc(Cl)c2)c1Cl [Example 236]		100%	3.71	100%	99%	84%
Cn1nc(C(F)F)c(C(=O)NC[Si](C)(C)c2cccc(Cl)c2)c1F [Example 237]		100%	3.55	100%	100%	100%
Cn1nc(C(F)F)c(C(=O)NC[Si](C)(C)c2cc(Cl)cc(Cl)c2)c1Cl [Example 243]		95%	4.27	100%	99%	84%
Cn1nc(C(F)F)c(C(=O)NC[Si](C)(C)c2cc(Cl)cc(Cl)c2)c1F [Example 244]		100%	4.08	95%	100%	100%
Cn1nc(C(F)F)c(C(=O)N(C[Si](C)(C)c2ccsc2)C2CC2)c1Cl [Example 247]		94%	3.71	100%	100%	100%

Source: US9232799B2, “N-[(het)arylethyl)] pyrazole(thio)carboxamides and their heterosubstituted analogues” (BAYER INTELLECTUAL PROPERTY GMBH, priority 2010, dated 2016)
